Laboratory results published in publication PMC10788856, “Mimicking Nonribosomal Peptides from the Marine Actinomycete Streptomyces sp. H-KF8 Leads to Antimicrobial Peptides” (ACS Infectious Diseases, 2023).
Square brackets hold non-standard residues; d marks the D form. Peptide text beside a SMILES is read from it. Tyr(3-NO2) = N[C@@H](Cc1ccc(O)c([N+](=O)[O-])c1)C(=O)O; Orn = NCCC[C@H](N)C(=O)O

What was measured:
[1] = parameters: method as in PMID 20518462; settings: nitrotyrosine side chain; cited from earlier work
S. aureus = experiment: microbe, parasite or virus in culture; format: cell-based; settings: 16 h
[2] = 37 °C, RP-HPLC; for stability in human serum: human serum from male AB plasma, 250 μL serum + 100 μL aqueous peptide solution (L2 1 mM; L3 0.9 mM; L3-K 0.7 mM; C3 0.5 mM), 0, 0.5, 1, 4, 24 h, Fmoc-Gly internal standard; for additional peaks / shoulder in chromatogram after 24 h in serum, total volume percentage: human serum, detection at 254 nm
Procedure: Peptide stability in serum is another limiting factor for AMPs as novel antibiotics.[30]
Peptide serum stability was performed according to D́Aloisio et al.[30] and Chen et al.[51] with some minor modifications. The serum stability was investigated using human serum (Sigma-Aldrich) from Human male AB plasma, USA origin, sterile-filtered. 250 μL serum was temperature-equilibrated at 37 °C and 100 μL aqueous peptide solution (L2: 1 mM; L3: 0.9 mM; L3-K: 0.7 mM; and C3: 0.5 mM) was added. RP-HPLC was measured at time intervals of 0, 0.5, 1, 4, and 24 h. For RP-HPLC samples, 30 μL of peptide solution was taken, 7 μL of Fmoc-Gly solution (4 mM) was added, and 2 μL of the sample was injected to HPLC. […]
Figure S 133. RP-HPLC chromatogram (gradient from 10 to 90% acetonitrile in water over 10 min at 2
ml/min, detection at 254 nm) of peptides tested for serum stability. A) peptide L2 B) peptide L3. C)
(1 picture or pasted object on this page, not shown here)

C. albicans = experiment: microbe, parasite or virus in culture; format: cell-based; settings: 16 h
[3] = system: human embryonic kidney (HEK) cells; format: cell-based
Procedure: (§1) To confirm the peptide selectivity toward bacteria cells, cytotoxicity assays of synthesized peptides L2, L3, L3-K, and C3 against human embryonic kidney (HEK) and hepatoblastoma (HepG2) were performed (Figure 4). The cell viability was assessed using resazurin 24 h post peptide exposure. The line at 70% cell viability marks out the threshold for cytotoxic potential compared to the negative control.
(§2) Figure 4 Cell viability assessment using the resazurin assay 24 h post peptide exposure: (a) HepG2 and (b) HEK cells were treated with various concentrations of the peptides C3, L3, L3-K, and L2. Triton-X was used as a positive control. Cells cultured in pure cell media were used as negative controls and were considered to have 100% cell viability. The line represents the threshold for cytotoxicity level of 70% of cell viability compared to the negative control. Data are presented as the mean ± SD of three biological replicates of the HepG2 cells and the mean ± SD of two biological replicates of the HEK cells.
(§3) Cytotoxicity against human embryonic kidney (HEK) and hepatoblastoma (HepG2) cell lines was assessed. Cells were grown to an initial seeding density of 10 000 cells per well. Metabolic activity was determined in a resazurin-based assay. HEK and HepG2 cells were exposed to four different concentrations of the peptides for 24 h. Treatment with Triton X-100 at 1% v/v was used as a positive control. Following this exposure period, the cells were treated with resazurin at a final concentration of 0.015 mg/mL for 3 h. The metabolic activity was then determined in an resazurin-based assay. The fluorescence intensities were quantified in a Hidex Sense microplate reader using an excitation wavelength of 544 nm and an emission wavelength of 590 nm.

[4] = system: hepatoblastoma (HepG2) cells; format: cell-based, human
Procedure: as §1, §2, §3

E. coli CCUG31246 = format: cell-based; settings: CCUG31246, 16 h
Procedure: MICs were performed under the same growth conditions used for mode of action analysis following the guidelines issued by the Clinical Laboratory Standardization Institute (CLSI) with slight modifications. Serial two-fold dilutions of the peptides were prepared in 1:10 BHI in a sterile 96-well plate and subsequently inoculated with 5 × 10^5 CFU/mL of E. coli CCUG31246. […] The following MICs were obtained: C3: 512 μg/mL, L3: 64 μg/mL, and L3-K: 128 μg/mL. These concentrations were used for all mechanistic experiments. Polymyxin B was used as a positive control in all assays at a final concentration of 10 μg/mL.

Row | Structure (SMILES) | pKa value [1] | S. aureus MIC (S. aureus) [µg/mL] | stability in human serum [2] | additional peaks / shoulder in chromatogram after 24 h in serum, total volume percentage [2] [%] | C. albicans MIC (C. albicans) [µg/mL] | cytotoxicity, cell viability HEK [3] | cytotoxicity, cell viability HepG2 [4] | E. coli MIC (E. coli CCUG31246) [µg/mL]
1 | N[C@@H](Cc1ccc(O)c([N+](=O)[O-])c1)C(=O)O [Y-NO2] | 7.1 | – | – | – | – | – | – | –
2 | CC(C)[C@@H](NC(=O)[C@H](CCCN)NC(=O)[C@@H](NC(=O)[C@H](CCCN)NC(=O)[C@H](Cc1c[nH]c2ccccc12)NC(=O)[C@@H](C)NC(=O)[C@H](NC(=O)[C@@H](C)NC(=O)[C@@H](N)Cc1c[nH]c2ccccc12)C(C)C)[C@@H](C)O)C(=O)N[C@@H](Cc1ccc(O)c([N+](=O)[O-])c1)C(N)=O [L3-K] (H-W[dA][dV][dA]W[Orn]T[Orn][dV][Tyr(3-NO2)]-NH2) | – | 418.7 | stable after 24 h | 1.3 | 248 | no cytotoxicity at any tested concentration | no cytotoxicity at any tested concentration | –
3 | CC(C)[C@@H](NC(=O)[C@H](CCCN)NC(=O)[C@@H](NC(=O)[C@H](CCCN)NC(=O)[C@H](Cc1c[nH]c2ccccc12)NC(=O)[C@@H](C)NC(=O)[C@H](NC(=O)[C@@H](C)N)C(C)C)[C@@H](C)O)C(=O)N[C@@H](CCCCN)C(N)=O [L2] (H-[dA][dV][dA]W[Orn]T[Orn][dV]K-NH2) | – | >512 | stable after 24 h | 0.4 | >512 | no cytotoxicity at any tested concentration | no cytotoxicity at any tested concentration | >512
